This is an account of results in the NIST ThermoML archive (doi:10.1016/j.fluid.2018.05.018).

Numbers after ± are expanded uncertainties.

For the series the following is noted: Crystal; visual observation.

For the compound `CCOC(=O)N1CCC(=C2c3ccc(Cl)cc3CCc3cccnc32)CC1` [claritine], the Normal melting temperature turned out to be 134 ± 4 °C.
